Entries after “also recorded” stand apart in the source; their conditions may differ.
How the values were obtained:
β-Glcase (Bovine Liver) = molecular target: T1, β-Glcase (Bovine Liver) (Bos taurus, UniProt F1MNT6); experiment: Glycosidase inhibition (Ki), bovine liver β-glucosidase; type: biochemical; details: mean ± SD, three independent determinations; competitive inhibition
T1 sequence (F1MNT6 1-469): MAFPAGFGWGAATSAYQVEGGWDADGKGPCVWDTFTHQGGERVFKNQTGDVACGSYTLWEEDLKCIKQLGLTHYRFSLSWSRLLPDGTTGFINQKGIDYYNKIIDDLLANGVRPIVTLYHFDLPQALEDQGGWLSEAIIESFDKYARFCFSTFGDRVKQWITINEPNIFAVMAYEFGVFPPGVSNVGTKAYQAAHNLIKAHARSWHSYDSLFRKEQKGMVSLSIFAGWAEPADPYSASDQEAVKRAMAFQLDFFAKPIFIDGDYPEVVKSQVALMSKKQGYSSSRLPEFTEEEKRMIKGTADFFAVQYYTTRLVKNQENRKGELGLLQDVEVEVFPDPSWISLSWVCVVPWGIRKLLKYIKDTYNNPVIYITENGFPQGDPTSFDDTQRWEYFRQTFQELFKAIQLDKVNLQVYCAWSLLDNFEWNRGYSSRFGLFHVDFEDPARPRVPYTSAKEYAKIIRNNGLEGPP
Source text: (§1) The inhibitory properties of the new sp^2-IGLs 1–12 and the α-C-allyl ONJ and OGJ glycosides 15, and 24 were examined against a panel of commercial glycosidases that included the α-glucosidases maltase (Saccharomyces cerevisiae) and amyloglucosidase (Aspergillus niger), the β-glucosidases from almonds and bovine liver, α-galactosidase from green coffee beans, β-galactosidase from Escherichia coli, α-mannosidase from Jack beans, and β-mannosidase from Helix pomatia. The corresponding inhibition constant (Ki) values are collected in Table 1.
(§2) Inhibition constant (Ki) values were determined by spectrophotometrically measuring the residual hydrolytic activities of the glycosidases against the respective o- (for β-galactosidase from E. coli) or p-nitrophenyl α- or β-D-glycopyranoside (for other glycosidases) in the presence of the iminosugars. Each assay was performed in phosphate buffer or phosphate-citrate buffer (for α- or β-mannosidase and amyloglucosidase) at the optimal pH for the enzymes. The reactions were initiated by addition of the enzyme to a solution of the substrate in the absence or presence of various inhibitor concentrations. The mixture was incubated for 10–30 min at 37 °C or 55 °C (for amyloglucosidase) and the reaction was quenched by addition of 1 M Na2CO3. Reaction times were appropriate to obtain 10–20% conversion of the substrate in order to achieve linear rates. The absorbance of the resulting mixture was determined at 405 nm. Approximate value of Ki was determined from the slope of Dixon plots using a fixed concentration of substrate (around the Km value for the different glycosidases) and various concentrations of inhibitor. Full Ki determinations and enzyme inhibition mode were determined from the slope of Lineweaver–Burk plots and double reciprocal analysis. Representative examples of Dixon and Lineweaver–Burk plots are shown in the Supplementary materials.

[1] = tested on: intracellular amastigotes of Leishmania donovani MHOM/ET/67/HU3 line; experiment: Susceptibility of intracellular Leishmania amastigotes (luciferase assay); type: cell-based; details: L. donovani in THP-1 macrophages, 72 h at 37 °C, threshold 20 μM
Procedure: The leishmanicidal activity of all the synthesized sp^2-iminosugar C-glycosides (1–12) was evaluated against intracellular amastigotes of Leishmania donovani MHOM/ET/67/HU3 line with luciferase gene integrated into the parasite genome. […] A strong influence of the nature of the lipid chain α-linked to the pseudoanomeric position of the bicyclic core in the sp^2-IGLs was inferred from the corresponding data. […] The longer-chain sp^2-IGLs 2 and 8 were over the 20 μM concentration threshold in this assay. In the sulfone series, the results evidenced some disparity between the ONJ and OGJ epimers.
Macrophage-differentiated THP-1 cells, which are considered a suitable model for human macrophages, were plated at a density of 3 × 10^4 or 3 × 10^5 macrophages/well in 96-well white polystyrene microplates or 24-well tissue culture chamber slides, respectively, and were infected at a macrophage/parasite ratio of 1:10 with L. donovani promastigotes. Twenty-four hours after infection at 35 °C and 5% CO2, extracellular parasites were removed by washing with serum-free medium. Infected cell cultures were then incubated at different compound concentrations in RPMI 1640 medium plus 10% iFBS at 37 °C with 5% CO2 for 72 h. To determine the susceptibility of L. donovani LUC amastigotes, infected macrophages maintained in 96-well plates were lysed and then luminescence intensity was measured as indicative of the intracellular parasite growth, using the Luciferase Assay System Kit (Promega, Madison, Wis.) according to the instructions of the supplier. To determine the susceptibility of L. donovani HU3 amastigotes, infected macrophages maintained in 24-well plates were fixed for 30 min at 4 °C with 2.5% paraformaldehyde phosphate-buffered saline (PBS; 1.2 mM KH2PO4, 8.1 mM Na2HPO4, 130 mM NaCl, and 2.6 mM KCl adjusted to pH 7) and permeabilized with 0.1% Triton X-100 in PBS for 30 min. Intracellular parasites and macrophages were detected by nuclear staining with ProLong® Gold antifade reagent plus DAPI (Invitrogen). The percentage infection and mean number of amastigotes from infected macrophages were determined with 200 macrophages/well.

α-Glcase (Yeast Maltase) = molecular target: T2, α-Glcase (Yeast Maltase) (Saccharomyces cerevisiae, UniProt P53341); experiment: Glycosidase inhibition (Ki), yeast maltase α-glucosidase; type: biochemical; details: for Ki, α-Glcase (Yeast Maltase): mean ± SD, three independent determinations, competitive inhibition
T2 construct: purchased
T2 sequence (P53341 whole entry): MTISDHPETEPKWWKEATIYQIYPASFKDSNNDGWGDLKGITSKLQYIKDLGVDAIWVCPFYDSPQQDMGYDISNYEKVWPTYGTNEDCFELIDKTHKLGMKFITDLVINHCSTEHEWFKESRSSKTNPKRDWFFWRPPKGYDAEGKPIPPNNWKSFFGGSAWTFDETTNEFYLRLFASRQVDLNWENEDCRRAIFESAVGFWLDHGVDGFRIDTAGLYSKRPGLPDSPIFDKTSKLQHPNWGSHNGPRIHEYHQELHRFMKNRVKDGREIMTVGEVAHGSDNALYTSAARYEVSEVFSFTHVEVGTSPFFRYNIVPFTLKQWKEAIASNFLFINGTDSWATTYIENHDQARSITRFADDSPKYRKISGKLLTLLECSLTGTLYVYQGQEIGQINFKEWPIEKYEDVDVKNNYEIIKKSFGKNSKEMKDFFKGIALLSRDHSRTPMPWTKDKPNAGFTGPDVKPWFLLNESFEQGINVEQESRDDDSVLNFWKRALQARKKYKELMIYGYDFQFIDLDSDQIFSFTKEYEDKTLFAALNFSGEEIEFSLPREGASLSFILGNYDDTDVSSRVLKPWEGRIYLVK
Source text: as §1, §2

[2] = tested on: human lung fibroblast MRC-5 cells; experiment: Cellular toxicity (MTT assay) in MRC-5 cells; type: cell-based; details: for EC50: Homo sapiens, MRC5, MTT assay, 72 h at 37 °C; for SI (EC50 MRC-5/EC50 parasite): Selectivity Index
[3] = tested on: human solid tumor cell lines A549, SW1573 (lung), HBL-100, T-47D (breast), HeLa (cervix), WiDr (colon); experiment: Antiproliferative activity (SRB assay) against a panel of six human solid tumor cell lines; type: cell-based; details: for GI50: read-out: GI50 (concentration to achieve 50% growth inhibition), 48 h, tested 1 to 100 μM, only values below 100 μM significant
Procedure: The antiproliferative activity of all the sp^2-iminosugar C-glycosides (1–12) was evaluated against a panel of six representative human solid tumor cell lines including lung (A549 and SW1573), breast (HBL-100, T-47D), cervix (HeLa), and colon (WiDr).
All reagents were used as purchased from commercial suppliers without further purification. The human solid tumor cell lines A549 (lung), HBL-100 (breast), HeLa (cervix), SW1573 (lung), T-47D (breast), and WiDr (colon) were used in this study. These cell lines were a kind gift from Prof. G. J. Peters (VU Medical Center, Amsterdam, The Netherlands).
Cells were inoculated onto 96-well microtiter plates in a volume of 100 μL per well at densities of 2500 (A549, HBL-100, HeLa, and SW1573) and 5000 (T-47D and WiDr) cells per well, based on their doubling times. Compounds were initially dissolved in DMSO at 400 times the desired final maximum test concentration. Control cells were exposed to an equivalent concentration of DMSO (0.25% v/v, negative control). Each agent was tested in triplicate at different dilutions in the range of 1 to 100 μM. The drug treatment started on day 1 after plating. Drug incubation times were 48 h, after which cells were precipitated with 25 μL ice-cold TCA (50% w/v) and fixed for 60 min at 4 °C. Then the SRB assay was performed. The optical density (OD) of each well was measured at 530 nm, using BioTek’s PowerWave XS Absorbance Microplate Reader. Values were corrected for background OD from wells only containing medium. The antiproliferative activity for each compound, expressed as GI50 values, was calculated according to NCI formulas.

THP-1 cells = experiment: Cellular toxicity (MTT assay) in THP-1 cells; type: cell-based, human; details: for EC50: Homo sapiens, THP-1, MTT assay, 72 h at 37 °C
Procedure: Human myelomonocytic cell line THP-1 was grown at 37 °C and 5% CO2 in RPMI-1640 supplemented with 10% iFBS, 2 mM […], 100 U/mL penicillin, and 100 μg/mL streptomycin; 3 × 10^4 cells/well in 96-well plates were differentiated to macrophages with 20 ng/mL of PMA treatment for 48 h followed by 24 h of culture in fresh medium. Cellular toxicity of all compounds was determined using the colorimetric MTT-based assay after incubation at 37 °C for 72 h in the presence of increasing concentrations of compounds [71].

[4] = molecular target: T3, green coffee bean α-galactosidase (Coffea arabica, UniProt Q42656); experiment: Glycosidase inhibition, green coffee bean α-galactosidase; type: biochemical, green coffee beans; details: 1 mM concentration
T3 construct: purchased
T3 sequence (Q42656 16-378): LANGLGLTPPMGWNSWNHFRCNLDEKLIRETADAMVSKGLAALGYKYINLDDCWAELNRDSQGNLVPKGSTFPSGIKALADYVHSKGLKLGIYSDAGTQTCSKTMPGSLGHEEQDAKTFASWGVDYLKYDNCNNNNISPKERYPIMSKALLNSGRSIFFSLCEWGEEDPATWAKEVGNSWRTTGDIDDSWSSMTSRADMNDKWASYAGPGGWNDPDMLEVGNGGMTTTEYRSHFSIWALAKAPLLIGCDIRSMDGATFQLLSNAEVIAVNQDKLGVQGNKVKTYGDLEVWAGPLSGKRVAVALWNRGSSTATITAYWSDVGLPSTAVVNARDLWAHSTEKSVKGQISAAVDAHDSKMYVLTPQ
Source text: as §1
Inhibition constant (Ki) values were determined by spectrophotometrically measuring the residual hydrolytic activities of the glycosidases against the respective o- (for β-galactosidase from E. coli) or p-nitrophenyl α- or β-D-glycopyranoside (for other glycosidases) in the presence of the iminosugars. […] The absorbance of the resulting mixture was determined at 405 nm. Approximate value of Ki was determined from the slope of Dixon plots using a fixed concentration of substrate (around the Km value for the different glycosidases) and various concentrations of inhibitor. Full Ki determinations and enzyme inhibition mode were determined from the slope of Lineweaver–Burk plots and double reciprocal analysis. […]

MDA-MB-231, breast = tested on: MDA-MB-231, breast; parameters: method as in PMID 24124558, PMID 28145580; details: Figure 1; cited from earlier work
MCF-7, breast = tested on: MCF-7, breast; parameters: method as in PMID 24124558, PMID 28145580; details: Figure 1; cited from earlier work
[5] = tested on: intracellular amastigotes of Leishmania donovani (amastigotes HU3); parameters: method as in doi:10.1039/C5RA02627J; details: cited from earlier work; for EC50: intracellular amastigotes of Leishmania donovani
[6] = tested on: different human tumor cell lines; parameters: method as in doi:10.1039/C5RA02627J; details: read-out: GI50 against different human tumor cell lines; cited from earlier work
A549, lung = tested on: A549, lung; parameters: method as in doi:10.1039/C5RA02627J; details: Figure 1; cited from earlier work
T-47D, breast = tested on: T-47D, breast; parameters: method as in doi:10.1039/C5RA02627J; details: Figure 1; cited from earlier work

With `CC(C)(C)OC(=O)NCCSCCC[C@@H]1[C@H](O)[C@@H](O)[C@@H](O)[C@H]2COC(=O)N12` [Compound 9, (1R)-1-[3-(N-tert-Butoxycarbonylaminoethylthio)propyl]-5N,6O-oxomethylidene-1-deoxygalactonojirimycin] the “Ki, β-Glcase (Bovine Liver)” value (β-Glcase (Bovine Liver)) was “n.i”, the EC50 [1] was 13.4 ± 1.13 µM and the “Ki, α-Glcase (Yeast Maltase)” value (α-Glcase (Yeast Maltase)) was “n.i”. For the same compound, the EC50 [2] was 140 ± 17.3 µM, the “SI (EC50 MRC-5/EC50 parasite)” value [2] was 10.44 and the “GI50 (concentration to achieve 50% growth inhibition)” value ([3]; 48 h, tested 1 to 100 μM, only values below 100 μM significant) was “did not show any significant antiproliferative activity; also recorded: did not display significant antiproliferative activity”. The GI50 [3] was over 100 µM and the EC50 (THP-1 cells) was over 200 µM.
In the case of `C=CC[C@@H]1[C@H](O)[C@@H](O)[C@@H](O)[C@H]2COC(=O)N12` [Compound 24, (1R)-1-Allyl-5N,6O-oxomethylidene-1-deoxygalactonojirimycin], the “Ki, β-Glcase (Bovine Liver)” value (β-Glcase (Bovine Liver)) is reported as “n.i”, the “Ki, α-Glcase (Yeast Maltase)” value (α-Glcase (Yeast Maltase)) is reported as “n.i” and the “Inhibition of green coffee bean α-galactosidase” value [4] is reported as “Neither epimeric OGJ sp^2-IGLs 7–12 nor α-allyl OGJ glycoside 24 behaved as inhibitors”.
For `CCCCCCCC[C@@H]1[C@H](O)[C@@H](O)[C@H](O)[C@H]2COC(=O)N12` [OC-ONJ], the IC50 (MDA-MB-231, breast) is given as 44 µM and the IC50 (MCF-7, breast) is given as 26 µM.
With `C=CC[C@@H]1[C@H](O)[C@@H](O)[C@H](O)[C@H]2COC(=O)N12` [Compound 15, (1R)-1-Allyl-5N,6O-oxomethylidene-1-deoxynojirimycin] the “Ki, β-Glcase (Bovine Liver)” value (β-Glcase (Bovine Liver)) was “n.i” and the Ki (α-Glcase (Yeast Maltase)) was 79 ± 8 µM.
For `CCCCCCCCSCCC[C@@H]1[C@H](O)[C@@H](O)[C@@H](O)[C@H]2COC(=O)N12` [Compound 7, (1R)-1-[3-(Octylthio)propyl]-5N,6O-oxomethylidene-1-deoxygalactonojirimycin], the “Ki, β-Glcase (Bovine Liver)” value (β-Glcase (Bovine Liver)) was “n.i”, the EC50 [1] was 10.6 ± 1.51 µM and the “Ki, α-Glcase (Yeast Maltase)” value (α-Glcase (Yeast Maltase)) was “n.i”. For the same compound, the EC50 [2] was 60.4 ± 2.8 µM, the “SI (EC50 MRC-5/EC50 parasite)” value [2] was 5.72 and the GI50 [3] was 14 to 54 µM. For the same compound, the EC50 (THP-1 cells) was 128 ± 5.71 µM and the “SI (EC50 THP-1/EC50 parasite)” value (THP-1 cells; Selectivity Index) was 12.06.
In the case of `CCCCCCCCCCCCS[C@@H]1[C@H](O)[C@@H](O)[C@H](O)[C@H]2COC(=O)N21` [DS-ONJ], the “Improvement of leishmanicidal potency relative to OS-ONJ” value [5] is listed as “up to 5 fold”, the EC50 [5] is listed as 20.5 µM and the GI50 [6] is listed as under 20 µM. The GI50 (A549, lung) was 16 µM.
In the case of `CCCCCCCCS[C@@H]1[C@H](O)[C@@H](O)[C@H](O)[C@H]2COC(=O)N21` [OS-ONJ], the EC50 [5] is listed as 73.3 µM, the IC50 (MDA-MB-231, breast) is listed as 35 µM and the IC50 (MCF-7, breast) is listed as 37 µM.
For `CCCCCCCCCCCCS[C@@H]1[C@H](O)[C@@H](O)[C@@H](O)[C@H]2COC(=O)N21` [DS-OGJ], the EC50 [5] is listed as 15.5 µM and the GI50 (T-47D, breast) is listed as 18 µM.
